From PubChem BioAssay (NCI)
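Here, GI50 denotes the concentration required for 50% inhibition of growth. TGI is the concentration that stops growth completely.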

What was measured:
Test in all cases: NCI anticancer screen, dose series, 384-well format
[1] = system: UACC-257 melanoma
[2] = system: SR leukemia
[3] = system: HCC-2998 colon
[4] = system: SNB-75 CNS
[5] = system: OVCAR-8 ovarian
[6] = system: ACHN renal
[7] = system: BT-549 breast
[8] = system: SF-268 CNS
[9] = system: HOP-62 NSCLC
[10] = system: IGROV1 ovarian
[11] = system: EKVX NSCLC
[12] = system: OVCAR-4 ovarian
[13] = system: T-47D breast
[14] = system: HCT-15 colon
[15] = system: MDA-MB-435 melanoma
[16] = system: HOP-92 NSCLC
[17] = system: HCT-116 colon
[18] = system: SK-MEL-2 melanoma
[19] = system: DU-145 prostate
[20] = system: RPMI-8226 leukemia
[21] = system: NCI/ADR-RES ovarian
[22] = system: UACC-62 melanoma
[23] = system: NCI-H226 lung
[24] = system: HS 578T breast
[25] = system: COLO 205 colon
[26] = system: U251 glioblastoma
[27] = system: HL-60(TB) leukemia
[28] = system: MALME-3M melanoma
[29] = system: NCI-H23 lung
[30] = system: 786-0 renal

SMILES: C[C@@H]1COCCN1c1cc(C2(S(C)(=N)=O)CC2)nc(-c2ccnc3[nH]ccc23)n1 (some centres undefined)
- TGI [1]: 27.5 µM
- GI50 [2]: 0.153 µM
- TGI [2]: 0.45 µM
- GI50 [3]: 0.967 µM
- TGI [3]: 3.58 µM
- GI50 [4]: 4.52 µM
- TGI [4]: 14.3 µM
- GI50 [5]: 5.49 µM
- TGI [5]: 18 µM
- GI50 [6]: 0.71 µM
- TGI [6]: 3.6 µM
- GI50 [7]: 1.93 µM
- TGI [7]: 9.01 µM
- GI50 [8]: 6.17 µM
- TGI [8]: 24 µM
- GI50 [9]: 1.34 µM
- TGI [9]: 3.58 µM
- GI50 [10]: 2.67 µM
- TGI [10]: 23 µM
- GI50 [11]: 4.78 µM
- TGI [11]: 19.9 µM
- GI50 [12]: 2 µM
- TGI [12]: 9.93 µM
- GI50 [13]: 8.7 µM
- TGI [13]: > 43.1 µM
- GI50 [14]: 2.21 µM
- TGI [14]: 13.7 µM
- GI50 [15]: 3.71 µM
- TGI [15]: 11.3 µM
- GI50 [16]: 2.04 µM
- TGI [16]: > 28.4 µM
- GI50 [17]: 2.54 µM
- TGI [17]: > 100 µM
- GI50 [18]: 0.685 µM
- TGI [18]: 2.46 µM
- GI50 [19]: 3.17 µM
- TGI [19]: 14 µM
- GI50 [20]: 1.4 µM
- TGI [20]: 3.2 µM
- GI50 [21]: 17 µM
- TGI [21]: 53.1 µM
- GI50 [22]: 3.01 µM
- TGI [22]: 14.4 µM
- GI50 [23]: 8.14 µM
- TGI [23]: 46.2 µM
- GI50 [24]: 2.45 µM
- TGI [24]: 12 µM
- GI50 [25]: 9.75 µM
- TGI [25]: 31.1 µM
- GI50 [26]: 4.85 µM
- TGI [26]: 29 µM
- GI50 [27]: 1 µM
- TGI [27]: 2.53 µM
- GI50 [28]: 5.67 µM
- TGI [28]: 16.8 µM
- GI50 [29]: 1.24 µM
- TGI [29]: 3.26 µM
- GI50 [30]: 1.82 µM
- TGI [30]: 5.72 µM
